Reference: ChEMBL document CHEMBL1130819, “Synthesis and biological evaluation of 1,2-disubstituted carbonucleosides of 2-amino-6-substituted purine and 8-azapurine” (Bioorg Med Chem Lett, 1998)
In brackets after ≈: the same amount, converted by molar mass.

How the values were obtained:
CCRF-CEM = assay: Antitumor activity was evaluated against CEM cell line; format: functional, cell-based; settings: Homo sapiens
L1210 = assay: Antitumor activity was evaluated against L1210 cell line; format: functional, cell-based; settings: Mus musculus
MOLT-4 = assay: Antitumor activity was evaluated against Molt4/C8 cell line; format: functional, cell-based; settings: Homo sapiens
Human alphaherpesvirus 3 [1] = assay: Antiviral activity against Varicella-Zoster virus(YS/R strain); format: functional, organism-based
Human alphaherpesvirus 3 [2] = assay: Antiviral activity against Varicella-Zoster virus (07/1strain); format: functional, organism-based
Human alphaherpesvirus 3 [3] = assay: Antiviral activity against Varicella-Zoster virus(OKA strain); format: functional, organism-based

IC50 (CCRF-CEM)	IC50 (L1210)	IC50 (MOLT-4)	EC50 (Human alphaherpesvirus 3 [1])	EC50 (Human alphaherpesvirus 3 [2])	EC50 (Human alphaherpesvirus 3 [3])	SMILES
83 µM	71.4 µM	49.1 µM	–	–	–	Nc1nc(Cl)c2ncn([C@H]3CCC[C@H]3CO)c2n1
90 µM	113 µM	147 µM	37 µg/mL (≈ 149 µM)	–	–	Nc1nc(N)c2ncn([C@H]3CCC[C@H]3CO)c2n1
86.7 µM	80 µM	86 µM	–	–	–	Nc1nc(O)c2nnn([C@H]3CCC[C@H]3CO)c2n1
90.5 µM	77.2 µM	120 µM	50 µg/mL (≈ 201 µM)	45 µg/mL (≈ 181 µM)	32 µg/mL (≈ 128 µM)	Nc1nc(N)c2nnn([C@H]3CCC[C@H]3CO)c2n1
53 µM	71 µM	75.3 µM	–	–	–	Nc1nc(Cl)c2nnn([C@H]3CCC[C@H]3CO)c2n1
> 200 µM	> 200 µM	> 200 µM	–	–	–	Nc1nc(O)c2ncn([C@H]3CCC[C@H]3CO)c2n1
